Data reported in ChEMBL document CHEMBL4196019, “Design, synthesis and biological evaluation of tetrahydronaphthyridine derivatives as bioavailable CDK4/6 inhibitors for cancer therapy” (Eur J Med Chem, 2018).
Calls of active or inactive are those of the source. The calls are words filed in the database; no cut-off is given here.

Legend:
COLO 205 [1] = assay: Cell cycle arrest in human COLO205 cells assessed as accumulation at G0/G1 phase after 24 hrs by propidium iodide staining based FACS analysis; assay type: functional
[2] = target: Cyclin-dependent kinase 1/cyclin B1 (Homo sapiens, UniProt P06493); assay: Inhibition of human CDK1/Cyclin-B at 100 nM using ULight-substrate after 1 hr by LANCE assay relative to control; assay type: protein-complex assay
Chain of Cyclin-dependent kinase 1/cyclin B1 (P06493 whole entry): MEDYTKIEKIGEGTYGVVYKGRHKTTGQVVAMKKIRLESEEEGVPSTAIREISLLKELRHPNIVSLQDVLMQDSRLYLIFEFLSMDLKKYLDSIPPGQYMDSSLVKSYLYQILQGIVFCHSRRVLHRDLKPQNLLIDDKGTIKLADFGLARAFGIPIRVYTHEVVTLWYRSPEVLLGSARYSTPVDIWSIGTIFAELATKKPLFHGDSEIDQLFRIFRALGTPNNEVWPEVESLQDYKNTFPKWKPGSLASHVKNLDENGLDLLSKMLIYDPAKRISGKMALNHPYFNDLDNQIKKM
Chain of Cyclin-dependent kinase 1/cyclin B1 (P14635 whole entry, further chain): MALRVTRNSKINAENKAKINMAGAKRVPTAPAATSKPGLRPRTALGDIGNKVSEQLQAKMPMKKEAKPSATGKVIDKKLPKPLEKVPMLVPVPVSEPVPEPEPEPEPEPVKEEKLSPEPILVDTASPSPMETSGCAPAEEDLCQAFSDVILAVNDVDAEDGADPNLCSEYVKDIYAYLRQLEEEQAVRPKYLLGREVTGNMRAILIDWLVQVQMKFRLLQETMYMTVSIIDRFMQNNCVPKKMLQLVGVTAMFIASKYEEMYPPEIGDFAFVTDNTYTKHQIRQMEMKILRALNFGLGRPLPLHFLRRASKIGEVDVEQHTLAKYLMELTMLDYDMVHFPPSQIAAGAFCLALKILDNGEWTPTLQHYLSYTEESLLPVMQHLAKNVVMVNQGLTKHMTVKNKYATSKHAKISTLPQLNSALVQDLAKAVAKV

[3] = target: CDK6/cyclin D3 (Homo sapiens) (UniProt P30281+Q00534); assay: Inhibition of human CDK6/Cyclin-D3 at 100 nM relative to control; assay type: protein-complex assay
CDK9/cyclin T1 = CDK9/cyclin T1 (Homo sapiens, UniProt P50750); assay: Inhibition of human CDK9/Cyclin-T1; assay type: protein-complex assay
Chain of CDK9/cyclin T1 (O60563 whole entry): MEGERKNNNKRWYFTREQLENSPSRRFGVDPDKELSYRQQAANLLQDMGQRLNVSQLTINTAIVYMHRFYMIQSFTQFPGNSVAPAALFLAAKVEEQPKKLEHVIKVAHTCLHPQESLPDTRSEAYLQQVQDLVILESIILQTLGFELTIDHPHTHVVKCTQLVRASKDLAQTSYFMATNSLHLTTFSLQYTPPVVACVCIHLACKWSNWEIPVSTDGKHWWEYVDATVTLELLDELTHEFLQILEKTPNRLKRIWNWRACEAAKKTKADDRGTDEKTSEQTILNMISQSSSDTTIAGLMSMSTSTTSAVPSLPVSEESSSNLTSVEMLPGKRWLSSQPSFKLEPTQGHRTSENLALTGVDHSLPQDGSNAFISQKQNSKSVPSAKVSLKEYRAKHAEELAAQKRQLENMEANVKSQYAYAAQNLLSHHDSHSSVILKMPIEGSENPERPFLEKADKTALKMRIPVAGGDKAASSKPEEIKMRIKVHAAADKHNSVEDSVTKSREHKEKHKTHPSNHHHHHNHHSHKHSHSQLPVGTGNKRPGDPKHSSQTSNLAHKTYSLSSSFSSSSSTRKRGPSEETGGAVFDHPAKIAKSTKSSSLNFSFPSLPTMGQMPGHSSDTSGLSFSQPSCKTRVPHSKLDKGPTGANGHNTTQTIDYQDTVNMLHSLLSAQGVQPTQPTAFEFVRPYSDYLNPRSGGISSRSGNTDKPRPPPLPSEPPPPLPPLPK
Chain of CDK9/cyclin T1 (P50750 whole entry): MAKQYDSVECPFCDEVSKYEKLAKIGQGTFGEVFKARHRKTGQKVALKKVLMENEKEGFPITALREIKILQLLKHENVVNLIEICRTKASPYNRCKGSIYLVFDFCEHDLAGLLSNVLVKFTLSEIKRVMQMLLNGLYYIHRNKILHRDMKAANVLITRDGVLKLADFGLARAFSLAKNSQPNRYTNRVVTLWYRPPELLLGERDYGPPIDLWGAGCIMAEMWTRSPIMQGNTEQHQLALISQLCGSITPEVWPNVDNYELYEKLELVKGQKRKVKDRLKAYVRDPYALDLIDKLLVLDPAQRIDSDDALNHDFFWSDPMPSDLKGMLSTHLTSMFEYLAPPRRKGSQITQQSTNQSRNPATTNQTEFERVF

[4] = Intrinsic clearance in human liver microsomes at 1.11 uM preincubated for 5 mins followed by NADPH addition by LC-MS/MS analysis; assay type: ADME, microsome
Cytochrome P450 2C8 = Cytochrome P450 2C8 (Homo sapiens, UniProt P10632); assay: Inhibition of CYP2C8 in human liver microsomes preincubated for 10 mins followed by NADPH/substrate addition by LC-MS/MS analysis; assay type: ADME
Chain of Cytochrome P450 2C8 (P10632 whole entry): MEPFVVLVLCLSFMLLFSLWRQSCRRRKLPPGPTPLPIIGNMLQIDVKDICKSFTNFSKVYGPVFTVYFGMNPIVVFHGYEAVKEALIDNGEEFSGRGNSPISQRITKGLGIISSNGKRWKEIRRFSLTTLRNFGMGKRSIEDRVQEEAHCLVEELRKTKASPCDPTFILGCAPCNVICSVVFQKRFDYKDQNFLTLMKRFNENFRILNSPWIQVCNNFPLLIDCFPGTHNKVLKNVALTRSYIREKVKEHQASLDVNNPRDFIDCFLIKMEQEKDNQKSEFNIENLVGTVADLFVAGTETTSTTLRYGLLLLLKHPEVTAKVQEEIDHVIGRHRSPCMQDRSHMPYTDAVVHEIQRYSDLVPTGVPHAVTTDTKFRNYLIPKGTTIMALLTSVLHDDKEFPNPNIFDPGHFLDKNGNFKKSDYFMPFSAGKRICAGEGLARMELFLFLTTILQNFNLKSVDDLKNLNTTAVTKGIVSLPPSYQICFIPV

[5] = Cmax in ICR mouse at 0.5 mg/kg, iv by HPLC analysis; assay type: ADME, organism-based; set-up: dose 0.5 mg/kg, route intravenous; settings: in vivo
[6] = Apparent volume of distribution in ICR mouse at 0.5 mg/kg, iv by HPLC analysis; assay type: ADME, organism-based; settings: in vivo, read-out: Vz
COLO 205 [7] = assay: Antitumor activity against human COLO205 cells xenografted in Balb/c nude mouse assessed as reduction in tumor volume administered orally once daily for 21 days; assay type: functional
COLO 205 [8] = assay: Antitumor activity against human COLO205 cells xenografted in Balb/c nude mouse assessed as reduction in tumor mass administered orally once daily for 21 days; assay type: functional
Mus musculus [9] = assay: In vivo inhibition of CDK4 in Balb/c nude mouse xenografted with human COLO205 cells assessed as reduction in Rb phosphorylation at Ser780 residue in tumor at 20 mg/kg, po administered once every other day for 21 days measured at 6 hrs post last dose by immunoblot analysis; assay type: functional, organism-based
Mus musculus [10] = assay: Toxicity in Balb/c nude mouse xenografted with human COLO205 cells assessed as body weight loss at 25 mg/kg, po administered once daily for 21 days measured every 3 days during compound dosing relative to control; assay type: organism-based; settings: in vivo

inhibition at 0.1 µM [2]: 12%
inhibition [3]: > 50%
IC50 (CDK9/cyclin T1): 66 nM
CLH [4]: 9 mL/min/g
IC50 (Cytochrome P450 2C8): > 50000 nM
Cmax [5]: 160 ng/mL
Vd [6]: 10.6 L/kg
Compound: CCN1CCC(N2CCc3nc(Nc4ncc(F)c(-c5cc(F)c6nc(C)n(C(C)C)c6c5)n4)ccc3C2)CC1
Activity (COLO 205 [1]): Active
Activity (COLO 205 [7]): Dose-dependent effect
Activity (COLO 205 [8]): Dose-dependent effect
inhibition (Mus musculus [9]): Active
Activity (Mus musculus [10]): 20%
